System: 454973-116-R2-J3-PDC complex spheroid viability
Experiment: Anticancer human tumor 454973-116-R2-J3-PDC patient-derived pancreatic carcinoma cell line growth inhibition [POLQ]
Details: for IC50: curve of first compound; for viability, T/C: stronger effect = lower value; active = viability on the fitted dose curve at most 10% of control; inactive = the rest
How it was run: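 PDC + HUVEC + MSC complex spheroids; POLQ inhibitors ± partner drugs; top conc. at/near clinical Cmax, else 10 microM (SN-38 1 microM), half-log dilutions; 37 degrees C, 5% CO2.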

[1] = second compound 0.0316 µM, first compound 0.0316 µM
[2] = second compound 0.0316 µM, first compound 0.1 µM
[3] = second compound 0.0316 µM, first compound 0.316 µM
[4] = second compound 0.0316 µM, first compound 1 µM
[5] = second compound 0.0316 µM, first compound 3.16 µM
[6] = second compound 0.0316 µM, first compound 10 µM
[7] = second compound 0.1 µM, first compound 0.0316 µM
[8] = second compound 0.1 µM, first compound 0.1 µM
[9] = second compound 0.1 µM, first compound 0.316 µM
[10] = second compound 0.1 µM, first compound 1 µM
[11] = second compound 0.1 µM, first compound 3.16 µM
[12] = second compound 0.1 µM, first compound 10 µM
[13] = second compound 0.316 µM, first compound 0.0316 µM
[14] = second compound 0.316 µM, first compound 0.1 µM
[15] = second compound 0.316 µM, first compound 0.316 µM
[16] = second compound 0.316 µM, first compound 1 µM
[17] = second compound 0.316 µM, first compound 3.16 µM
[18] = second compound 0.316 µM, first compound 10 µM
[19] = second compound 1 µM, first compound 0.0316 µM
[20] = second compound 1 µM, first compound 0.1 µM
[21] = second compound 1 µM, first compound 0.316 µM
[22] = second compound 1 µM, first compound 1 µM
[23] = second compound 1 µM, first compound 3.16 µM
[24] = second compound 1 µM, first compound 10 µM
[25] = second compound 3.16 µM, first compound 0.0316 µM
[26] = second compound 3.16 µM, first compound 0.1 µM
[27] = second compound 3.16 µM, first compound 0.316 µM
[28] = second compound 3.16 µM, first compound 1 µM
[29] = second compound 3.16 µM, first compound 3.16 µM
[30] = second compound 3.16 µM, first compound 10 µM
[31] = second compound 10 µM, first compound 0.0316 µM
[32] = second compound 10 µM, first compound 0.1 µM
[33] = second compound 10 µM, first compound 0.316 µM
[34] = second compound 10 µM, first compound 1 µM
[35] = second compound 10 µM, first compound 3.16 µM
[36] = second compound 10 µM, first compound 10 µM
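Note: spheroids exposed to drugs for seven days before measurement.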
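Throughout, for viability, T/C: percent viability relative to DMSO vehicle control wells taken as 100%.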

COc1cc2cc(C(=O)CCC(=O)O)sc2cc1OC + Cc1cccc(N(C)C(=O)C2C(O)CCN2c2nc(C)cc(C(F)(F)F)c2C#N)c1
inactive: viability, T/C [1] 103% | viability, T/C [2] 107% | viability, T/C [3] 107% | viability, T/C [4] 102% | viability, T/C [5] 106% | viability, T/C [6] 97% | viability, T/C [7] 105% | viability, T/C [8] 98.1% | viability, T/C [9] 95.7% | viability, T/C [10] 98% | viability, T/C [11] 92.6% | viability, T/C [12] 88.7% | viability, T/C [13] 93.8% | viability, T/C [14] 104% | viability, T/C [15] 96.2% | viability, T/C [16] 110% | viability, T/C [17] 109% | viability, T/C [18] 93.7% | viability, T/C [19] 105% | viability, T/C [20] 102% | viability, T/C [21] 99% | viability, T/C [22] 102% | viability, T/C [23] 105% | viability, T/C [24] 93.7% | viability, T/C [25] 103% | viability, T/C [26] 97.9% | viability, T/C [27] 96.5% | viability, T/C [28] 100% | viability, T/C [29] 98.9% | viability, T/C [30] 95.5% | viability, T/C [31] 97.7% | viability, T/C [32] 98.8% | viability, T/C [33] 94% | viability, T/C [34] 111% | viability, T/C [35] 102% | viability, T/C [36] 90.8%
> 10 µM: IC50 (second compound 0.0316 µM) | IC50 (second compound 0.1 µM) | IC50 (second compound 0.316 µM) | IC50 (second compound 1 µM) | IC50 (second compound 3.16 µM) | IC50 (second compound 10 µM)

COc1ccc([C@@H](O)c2cc(-c3ncnc4cc(N5CCOCC5)ccc34)c(F)cc2Cl)nn1 + Cc1cccc(N(C)C(=O)C2C(O)CCN2c2nc(C)cc(C(F)(F)F)c2C#N)c1
> 10 µM: IC50 (second compound 0.0316 µM) | IC50 (second compound 0.1 µM) | IC50 (second compound 0.316 µM) | IC50 (second compound 1 µM) | IC50 (second compound 3.16 µM) | IC50 (second compound 10 µM)
inactive: viability, T/C [1] 105% | viability, T/C [2] 114% | viability, T/C [3] 101% | viability, T/C [4] 92.5% | viability, T/C [5] 70.2% | viability, T/C [6] 56.4% | viability, T/C [7] 104% | viability, T/C [8] 99% | viability, T/C [9] 102% | viability, T/C [10] 95.5% | viability, T/C [11] 71.1% | viability, T/C [12] 58% | viability, T/C [13] 107% | viability, T/C [14] 99.8% | viability, T/C [15] 103% | viability, T/C [16] 91.8% | viability, T/C [17] 76.2% | viability, T/C [18] 55% | viability, T/C [19] 109% | viability, T/C [20] 105% | viability, T/C [21] 107% | viability, T/C [22] 87.1% | viability, T/C [23] 71.5% | viability, T/C [24] 53.3% | viability, T/C [25] 112% | viability, T/C [26] 101% | viability, T/C [27] 108% | viability, T/C [28] 87.7% | viability, T/C [29] 74.7% | viability, T/C [30] 58.4% | viability, T/C [31] 112% | viability, T/C [32] 99.9% | viability, T/C [33] 99.3% | viability, T/C [34] 84.5% | viability, T/C [35] 64.7% | viability, T/C [36] 59.8%

Source: PubChem BioAssay AID1963846 (Molecular Pharmacology Branch, DTP, NCI, 2024)
